Data as given in US6723745B2, “Amino alcohol derivatives” (Sankyo Company, Limited, priority 2000, dated 2004).

How the values were obtained:
Adjuvant Arthritis = test: Inhibitory activity on induction of adjuvant arthritis; assay type: in vivo, rat; details: adjuvant (Mycobacterium butylricum) in right hind paw of female Lewis rats; oral, once daily for 21 days; swelling volume of right hind paw
Experimental: Determination of the Inhibitory Activity of the Compounds of the Present Invention on Induction of Adjuvant Arthritis
1. Preparation of Adjuvant
Heat-killed, Mycobacterium butylricum was suspended in mineral oil at a concentration of 2 mg/ml and sonicated with an ultrasonic apparatus.
2. Preparation of the Test Compound.
The test compound was suspended in 0.5% Tragacanth solution.
3. Induction of Adjuvant Arthritis
The adjuvant prepared as described in 1 was intradermally injected into the right hind paw of the female rats (usually Lewis rats were used) at a volume of 0.05 ml. Five rats per group were used. In one group of rats, adjuvant was not injected for the control group.
4. Administration of the Compound
The compound solution prepared as described in 2 was orally administered to rats from the injection day of the adjuvant, once daily for 21 days, at a dose of 5 ml/kg. Tragacanth solution (0.5%) was orally administered to one group of rats treated with adjuvant (the control group) and also to rats not treated with adjuvant.
5. Calculation Methods of Inhibitory Activity of the Compound
The volume of the right hind paw was determined with a plethymometer. The volume of the intact paw was subtracted from the individual volume, and the difference was used as the swelling volume. Then the inhibitory activity of the compound was calculated from the individual swelling volume of rats treated with the compound and that in the swelling volume of the control rats. The ID50 value of the compound was obtained from the doses treated and the average inhibitory rate of the group.

[1] = tested on: Host Versus Graft Reaction (HvGR) in the Rat; test: Inhibitory activity against host versus graft reaction (HvGR) in the rat; assay type: in vivo; details: Lewis rats injected with WKAH/Hkm spleen cells into hind foot pads; oral, once a day for 4 successive days; popliteal lymph node weight
Description: Determination of the Inhibitory Activity Against Host Versus Graft Reaction (HvGR) in the Rat
(1) Two Strains of Rats (Lewis Rats (Male, 6 Weeks Old, Charles River Japan) and WKAH/Hkm (Male, 7 Weeks Old, SLC Japan)) Were Used. Five Rats (Host) Per Group Were Used.
The spleen cells were isolated from the spleen of the rats and 1×10^8 cells were suspended in the RPMI640 medium (LIFE TECHNOLOGIES, Rockville Md. USA). One hundred microliter (1×10^7 cells) of the spleen cell suspension whose cells were isolated from either WKAH/Hkm rats or Lewis rats were subcutaneously injected into the bilateral feet pad of the hindlimbs of the Lewis rat.
(3) Administration of the Compound
The compound was suspended in 0.5% tragacanth solution The suspended compound was orally administered to rats in the drug-treated group (Lewis rats injected with spleen cells isolated from AH/Hkm rats, and treated with the compound) at a volume of 5 ml/kg. The treatment was started on the day of the spleen cell injection, once a day, for 4 successive days. Tragacanth solution (0.5%) was orally administered, instead of the suspension of the test compound, to the rats in the same strain group (Lewis rats injected with spleen cells which were isolated from the Lewis rats) and to the rats in the control group (Lewis rats injected spleen cells isolated from WKAH/Hkm rats, and not treated with the test compound).
(4) Determination Procedures for Inhibitory Activity Against HvGR
The average weight of the popliteal lymph node of the same strain rats was subtracted from the weight of the popliteal lymph node of the individual rat (popliteal lymph gland weight due to HvGR). The inhibition rate of the popliteal lymph node weight due to HvGR of the individual rat treated with the test compound against the average weight of the control rats was calculated. The inhibitory activity of the test compound was expressed as an ID50 value (mg/kg) calculated from the dose-inhibition rate by the least square method.

| SMILES | ID50 value (Adjuvant Arthritis) | HvGR ID50 values [1] |
| --- | --- | --- |
| CCCCCCCCc1ccc(CCC(N)(CO)CO)cc1.Cl [Reference Compound 1, reference compound] | 0.1666 mg/kg | 0.354 mg/kg |
| COc1ccc(OCC#Cc2ccc(CC[C@@](C)(N)CO)s2)cc1OC.O=C(O)/C=C\C(=O)O [Example 40, (2R)-Amino-2-methyl-4-{5-[3-(3,4-dimethoxphenoxy)propynyl]thiophen-2-yl}butan-1-ol Maleate] |  | 0.0683 mg/kg |
| COc1cccc(OCC#Cc2ccc(CC[C@@](C)(N)CO)s2)c1.O=C(O)/C=C\C(=O)O [Example 43, (2R)-Amino-2-methyl-4-{5-[3-(3-methoxylphenoxy)propynyl]thiophen-2-yl}butan-1-ol Maleate] |  | 0.0730 mg/kg |
| C[C@](N)(CO)CCc1ccc(CCCCCC2CCCCC2)s1 [Example 11, (2R)-Amino-2-methyl-4-[5-(5-Cyclohexylpent)thiophen-2-yl]butan-1-ol] |  | 0.0844 mg/kg |
| Cc1ccc(OCC#Cc2ccc(CC[C@@](C)(N)CO)s2)cc1.O=C(O)/C=C\C(=O)O [Example 34, (2R)-Amino-2-methyl-4-{5-[3-(4-methylphenoxy)propynyl]thiophen-2-yl}butan-1-ol Maleate] | 0.0470 mg/kg |  |
| Cc1ccc(OCC#Cc2ccc(CC[C@@](C)(N)CO)s2)cc1C.O=C(O)/C=C\C(=O)O [Example 46, (2R)-Amino-2-methyl-4-{5-[3-(3,4-dimethylphenoxy)propynyl]thiophen-2-yl}butan-1-ol Maleate] |  | 0.0454 mg/kg |
| C[C@](N)(CO)CCc1ccc(C#CCCCC2CCCCC2)s1 [Example 1, (2R)-Amino-2-methyl-4-[5-(5-Cyclohexylpent-1-ynyl)thiophen-2-yl]butan-1-ol] | 0.0897 mg/kg | 0.0843 mg/kg |
